Marks after values point to notes of the source that are not given here.
Assays:
CYP3A4 = CYP3A4 activity time course with microdosed oral midazolam
CYP2C19 = CYP2C19 (Homo sapiens, UniProt P33261); details: after ritonavir discontinuation vs baseline
[1] = with ketoconazole vs alone, previous trial EudraCT 2017-004453; cited from earlier work
[2] = fifth day of ritonavir 100 mg bid vs before ritonavir; 8 healthy volunteers
[3] = healthy volunteers, 6 days of high-dose ritonavir 600 mg bid; cited from earlier work
[4] = Ritonavir plasma exposure during 5-day 100 mg bid therapy; assay type: in vivo, human

CYP2C19, sequence (P33261 whole entry): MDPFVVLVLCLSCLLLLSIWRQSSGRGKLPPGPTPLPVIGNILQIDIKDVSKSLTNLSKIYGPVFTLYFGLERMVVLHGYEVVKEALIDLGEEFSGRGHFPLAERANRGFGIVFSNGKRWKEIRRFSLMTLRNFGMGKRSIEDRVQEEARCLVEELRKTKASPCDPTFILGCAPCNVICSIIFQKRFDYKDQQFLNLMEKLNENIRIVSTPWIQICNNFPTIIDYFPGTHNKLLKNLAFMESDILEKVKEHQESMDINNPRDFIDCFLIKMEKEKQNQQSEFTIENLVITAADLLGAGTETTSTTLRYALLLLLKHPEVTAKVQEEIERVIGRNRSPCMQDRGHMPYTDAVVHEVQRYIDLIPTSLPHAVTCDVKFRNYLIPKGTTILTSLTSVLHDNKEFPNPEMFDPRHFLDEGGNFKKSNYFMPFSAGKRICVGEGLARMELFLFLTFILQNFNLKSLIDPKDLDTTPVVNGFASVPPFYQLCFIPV

Cc1ncc2n1-c1ccc(Cl)cc1C(c1ccccc1F)=NC2 [Midazolam, midazolam]
Midazolam AUC2–4 increase, times baseline values (CYP3A4; from day 2 to day 5 of ritonavir treatment): 11.1–15.5 times baseline

COc1ccc2[nH]c([S+]([O-])Cc3ncc(C)c(OC)c3C)nc2c1 (stereo not drawn) [Omeprazole, omeprazole]
Decrease of omeprazole AUC0–4 (CYP2C19): approximately 35%

O=C(NC[C@H]1CN(c2ccc(N3CCOCC3=O)cc2)C(=O)O1)c1ccc(Cl)s1 [Rivaroxaban, rivaroxaban]
AUCinf ratio [1]: 2.37 ± 0.53
Geometric mean ratio (GMR) AUC0–24 [2]: 1.87*
Exposure (AUC) increase of rivaroxaban [3]: 2.5 fold

CC(C)c1nc(CN(C)C(=O)N[C@H](C(=O)N[C@@H](Cc2ccccc2)C[C@H](O)[C@H](Cc2ccccc2)NC(=O)OCc2cncs2)C(C)C)cs1 [ritonavir]
Estimated time to full recovery of CYP3A4 activity (CYP3A4; after a 5-day treatment course with ritonavir 100 mg bid): 10 to 12 days
AUC(0-t) ([4]; human, plasma, oral, 100 mg): 4590 to 5330 ng·h/mL
Cmax ([4]; human, plasma, oral, 100 mg, Cmax of ritonavir, remaining 4 days of 100 mg bid): 1780 to 2110 ng/mL
Ritonavir plasma concentrations ([4]; two days after the last ritonavir dose, LLOQ 10 ng/mL): close to or below the LLOQ

— publication PMC11052790 (Clinical Pharmacokinetics, 2024)
